Values of other authors, collected in publication PMC12444550, “Design, Synthesis, and Trypanosomicidal Evaluation of Eugenol-Based Azole Hybrids: Discovery of an In Vitro Active and Selective Compound” (ACS Omega, 2025).

Test system: T. cruzi epimastigotes
Design: method as in Brancaglion and coauthors
Details: ref Brancaglion and coauthors; read-out: in vitro IC50 against epimastigotes; cited from earlier work

**Q.** With `CCCc1cc(OC)c2oc(=O)c(C(=O)c3ccc([N+](=O)[O-])cc3)cc2c1` [nitrobenzoyl derivative, 8-methoxy-3-(4-nitrobenzoyl)-6-propyl-2H-cromen-2-one] as the compound, how does the IC50 read?
**A.** 28 µM
